The text below walks through data of ChEMBL document CHEMBL1148468, “Design and synthesis of novel cyanoguanidine ATP-sensitive potassium channel openers for the treatment of overactive bladder” (Bioorg Med Chem Lett, 2004).

Test [1] has as its target Sulfonylurea receptor 2, Kir6.2 (Homo sapiens, UniProt O60706+Q14654). Put plainly: (§1) In vitro ATP-sensitive potassium channel (KATP) activity in cells expressing human KATP channels Kir6.2 and sulfonylurea receptor 2B. The class given is functional.
Test [2] deals with Sulfonylurea receptors; K-ATP channels (Sus scrofa). Put plainly: In vitro functional potassium channel opening activity in tissue strips obtained from Landrace pig bladders(LPD).
Test [3] deals with Sulfonylurea receptor 2, Kir6.2 (Homo sapiens) (UniProt Q14654+O60706). The test is described as §1. It counts as functional. The following applies: filed as antagonist.

Chain of Sulfonylurea receptor 2, Kir6.2 (Q14654 whole entry): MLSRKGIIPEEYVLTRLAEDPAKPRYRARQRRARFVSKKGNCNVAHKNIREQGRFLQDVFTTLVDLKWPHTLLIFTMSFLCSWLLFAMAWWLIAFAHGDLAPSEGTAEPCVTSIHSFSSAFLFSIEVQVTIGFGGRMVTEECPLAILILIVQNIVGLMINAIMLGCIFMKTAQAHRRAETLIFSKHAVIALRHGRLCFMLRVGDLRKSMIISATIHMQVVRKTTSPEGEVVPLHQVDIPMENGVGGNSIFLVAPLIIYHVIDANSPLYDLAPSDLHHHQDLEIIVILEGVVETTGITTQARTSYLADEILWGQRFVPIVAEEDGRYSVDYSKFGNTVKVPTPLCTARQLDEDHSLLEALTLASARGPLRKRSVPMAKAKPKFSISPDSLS
Chain of Sulfonylurea receptor 2, Kir6.2 (O60706 whole entry): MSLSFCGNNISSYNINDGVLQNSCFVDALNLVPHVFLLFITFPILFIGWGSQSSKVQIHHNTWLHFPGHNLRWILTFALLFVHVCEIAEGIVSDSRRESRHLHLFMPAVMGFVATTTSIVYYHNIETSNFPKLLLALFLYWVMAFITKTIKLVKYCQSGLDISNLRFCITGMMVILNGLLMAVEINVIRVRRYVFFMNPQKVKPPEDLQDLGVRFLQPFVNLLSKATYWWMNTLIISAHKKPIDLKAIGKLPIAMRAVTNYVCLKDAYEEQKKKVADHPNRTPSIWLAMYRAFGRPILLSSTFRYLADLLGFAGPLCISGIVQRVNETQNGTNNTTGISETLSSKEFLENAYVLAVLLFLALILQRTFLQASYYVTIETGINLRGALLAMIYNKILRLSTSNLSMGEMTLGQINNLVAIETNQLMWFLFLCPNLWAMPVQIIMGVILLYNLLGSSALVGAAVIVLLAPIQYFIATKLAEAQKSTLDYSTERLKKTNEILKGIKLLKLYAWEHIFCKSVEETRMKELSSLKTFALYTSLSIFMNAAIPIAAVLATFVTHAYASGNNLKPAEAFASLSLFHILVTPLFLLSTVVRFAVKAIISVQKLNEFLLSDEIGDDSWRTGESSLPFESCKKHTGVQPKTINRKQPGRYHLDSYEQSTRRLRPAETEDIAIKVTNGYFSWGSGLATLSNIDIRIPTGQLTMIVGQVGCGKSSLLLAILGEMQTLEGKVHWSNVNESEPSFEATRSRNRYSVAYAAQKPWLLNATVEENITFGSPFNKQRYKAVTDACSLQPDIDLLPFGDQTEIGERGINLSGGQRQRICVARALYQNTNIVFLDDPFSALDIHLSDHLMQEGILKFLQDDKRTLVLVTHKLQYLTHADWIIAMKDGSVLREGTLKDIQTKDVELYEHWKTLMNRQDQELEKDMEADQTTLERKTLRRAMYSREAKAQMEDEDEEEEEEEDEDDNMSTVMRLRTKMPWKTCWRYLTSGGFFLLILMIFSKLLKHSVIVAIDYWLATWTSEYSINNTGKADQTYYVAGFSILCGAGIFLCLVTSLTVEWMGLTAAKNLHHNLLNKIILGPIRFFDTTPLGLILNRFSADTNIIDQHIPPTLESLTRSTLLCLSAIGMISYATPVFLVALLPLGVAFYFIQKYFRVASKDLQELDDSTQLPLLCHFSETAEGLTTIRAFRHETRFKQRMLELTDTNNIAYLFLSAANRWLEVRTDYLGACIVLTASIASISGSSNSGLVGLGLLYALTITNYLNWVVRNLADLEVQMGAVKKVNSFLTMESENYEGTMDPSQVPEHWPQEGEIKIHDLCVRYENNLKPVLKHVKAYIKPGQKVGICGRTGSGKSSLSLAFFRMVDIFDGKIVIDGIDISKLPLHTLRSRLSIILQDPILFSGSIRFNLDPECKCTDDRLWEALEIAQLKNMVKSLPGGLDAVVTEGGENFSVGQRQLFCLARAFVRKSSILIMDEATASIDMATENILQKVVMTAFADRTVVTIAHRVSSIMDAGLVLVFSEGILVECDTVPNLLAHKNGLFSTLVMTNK

In the case of `CC(C)(C)C(NC(=O)c1ccc(Cl)cc1)N/C(S)=N/c1cccnc1` (stereo not drawn), the EC50 (usually the concentration giving half of the maximal effect) in test [1] was 2.51 µM; in test [2] it was 7.94 µM.
`O=C(NC(NC(=S)Nc1cccnc1)C(Cl)(Cl)Cl)c1ccc(Cl)cc1` (stereo not drawn): the values for the concentration giving a half-maximal response (EC50) in test [1] and in test [2] were 0.794 µM and 2 µM, respectively.
For the molecule `CC(Cl)(Cl)C(NC(=O)c1ccc(Cl)cc1)NC(=NC#N)Nc1cccnc1` (stereo not drawn), the EC50 is 2 µM in test [1] and 2.51 µM in test [2].
In test [1], `Cc1cccc(C(=O)NC(/N=C(\NC#N)Nc2cccnc2)C(C)(Cl)Cl)c1` (stereo not drawn) had an EC50 of 5.01 µM.
Regarding `CC(C)(C)C(NC(=O)c1ccc(Cl)cc1)N/C(=N/c1cccnc1)N[N+](=O)[O-]` (stereo not drawn), the EC50 in test [1] was 31.6 µM; in test [2], 7.94 µM.
As to `CC(C)(C)C(NC(=O)c1ccc(Cl)cc1)N/C(=N/c1cccnc1)NC#N` (stereo not drawn), the half-maximal effective concentration (EC50) in test [1] is 6.31 µM; in test [2], 20 µM.
As for `CC(C)(C)C(NC(=O)c1ccc(Cl)cc1)NC(Nc1cccnc1)=C(C#N)C#N` (stereo not drawn), in test [3], the “Log EC50” value was “Antagonist”.
`N#CN/C(=N\C(NC(=O)c1ccc(Cl)cc1)C(Cl)(Cl)Cl)Nc1cccnc1` (stereo not drawn): the results for the concentration for a half-maximal effect (EC50) in test [1] and in test [2] were 1 µM and 2 µM, respectively.
For the molecule `CC(C)(C)C(NC(=O)c1ccc(Cl)cc1)N/C(=C/[N+](=O)[O-])Nc1cccnc1` (stereo not drawn), in test [1], the EC50 is above 100 µM.
`CN(C)S(=O)(=O)N/C(=N\C(NC(=O)c1ccc(Cl)cc1)C(C)(C)C)Nc1cccnc1` (stereo not drawn) had an EC50 in test [1] above 100 µM.
In the case of `CC(Cl)(Cl)C(NC(=O)c1cccc(F)c1)N/C(=N/c1cccnc1)NC#N` (stereo not drawn), the concentration for a half-maximal effect (EC50) in test [1] is 3.98 µM.
The same measure, in the same setting: the figure for `C=CCC(C)(C)C(NC(=O)c1ccc(Cl)cc1)NC(=NC#N)Nc1cccnc1` (stereo not drawn) is 20 µM.
As for `CC(Cl)(Cl)C(NC(=O)c1cc(F)cc(F)c1)N/C(=N/c1cccnc1)NC#N` (stereo not drawn), the half-maximal effective concentration (EC50) in test [1] was 3.98 µM; in test [2], 5.01 µM.
`CCCCC(C)(C)C(NC(=O)c1ccc(Cl)cc1)N/C(=N/c1cccnc1)NC#N` (stereo not drawn) showed a concentration for a half-maximal effect (EC50) in test [1] above 100 µM.
In the case of `CC(C)(C)C(NC(=O)c1ccc(Cl)cc1)N/C(=N/c1cccnc1)NS(N)(=O)=O` (stereo not drawn), the EC50 in test [1] was above 100 µM.
Still for that read-out and setting: the figure for `C=CC(C)(C)CC(NC(=O)c1ccc(Cl)cc1)N/C(=N/c1cccnc1)NC#N` (stereo not drawn) is 10 µM.
On the same count and under the same terms, the figure for `CC(Cl)(Cl)C(NC(=O)c1ccc(Br)cc1)N/C(=N/c1cccnc1)NC#N` (stereo not drawn) is 10 µM.
Turning to `CC(Cl)(Cl)[C@@H](NC(=O)c1ccc(Cl)cc1)N/C(=N/C#N)Nc1cccnc1`, the EC50 is 0.316 µM in test [1] and 5.01 µM in test [2].
For the molecule `Cc1ccc(C(=O)NC(/N=C(\NC#N)Nc2cccnc2)C(C)(Cl)Cl)cc1` (stereo not drawn), the EC50 in test [1] was 2.51 µM.
Take `CCC(CC)(CCC#N)C(NC(=O)c1ccc(Cl)cc1)NC(=NC#N)Nc1cccnc1` (stereo not drawn): the EC50 in test [1] and in test [2] was 5.01 µM each time.
Consider `CC(Cl)(Cl)[C@H](NC(=O)c1ccc(Cl)cc1)N/C(=N/c1cccnc1)NC#N`, for which the EC50 in test [1] was 10 µM; in test [2], 20 µM.
Consider `CC(Cl)(Cl)C(NC(=O)c1cccc(Cl)c1)N/C(=N/c1cccnc1)NC#N` (stereo not drawn), for which the EC50 in test [1] was 3.16 µM; in test [2] it was 1.58 µM.
